Laboratory results taken from patent publication US9163044B2, “Carbon monoxide releasing molecules and uses thereof” (Alfama, Inc., priority 2011, dated 2015).

How the values were obtained:
[1] = carboxyhemoglobin (COHb) levels in treated mice; assay type: in vivo, CD-1 female mice
Procedure: FIG. 9 depicts the percentage of carboxyhemoglobin (CO-Hb) measured in CD-1 female mice following Compound 3b administration at 300 mg/kg, intravenously. The CO-Hb was quantified over 80 min by using an oximeter (Avoximeter 4000 from A-vox Instruments). The base line of CO-Hb measured with this instrument is 3-4%.

[2] = test system: liver ischemia-reperfusion model; test: liver ischemia-reperfusion model; assay type: in vivo, C57BL/6 mice; conditions: 30 mg/kg i.p. 1 h before and 1 h after surgery; ALT 24 h later
Procedure: Liver ischemia-reperfusion model in C57BL/6 mice. In anesthetized C57BL/6 mice, the hepatic artery and portal vein were clamped for 30 min; 24 h later, serum ALT levels were determined. Compound 3b was dosed i.p. at 30 mg/kg each 1 h before and 1 h after surgery.
FIG. 20 depicts the effect of Compound 3b in the Ischemia-Reperfusion model. In anesthetized C57BL/6 mice, the hepatic artery and portal vein were clamped for 30 min; 24 h later, serum ALT levels were determined. Compound 3b was administered by i.p. injection at 30 mg/kg, 1 hour before and 1 h after surgery.

[3] = test system: primary hepatocytes from C57BL/6 mice; test: ex-vivo model of apoptosis (ActD/TNF-α); assay type: cell-based, mouse; conditions: 2×150 μg/0.5 mL well (2×600 μM), 24 hours
Procedure: FIGS. 21A-21B depict the effect of Compound 3b in an ex-vivo model of apoptosis. Apoptosis of primary hepatocytes from C57BL/6 mice was induced with Actinomycin D (ActD; 200 ng/mL) and Tumour Necrosis Factor-α (TNF-α; 10 ng/mL). Compound 3b was added to the cultures 1 hour before and 1 hour after the addition of the apoptosis inducers ActD/TNF-α. Compound 3b was tested at concentrations of 25, 50, 100 and 150 μg/0.5 mL well. Hepatocytes survival was determined 24 hours after the addition of the apoptosis inducers. FIG. 21A: Percentage of increase in survival ActD/TNF-α treated cells in the presence of Compound 3b, relative to cells treated with only the apoptosis inducers. FIG. 21B: Toxicity of the Compound 3b doses on murine hepatocytes (not treated with apoptosis inducers). Data are the mean±S.D. of 3-5 independent experiments (3-5 livers from different mice).

[4] = test system: murine partial hepatectomy model; test: liver regeneration, murine partial (70%) hepatectomy model; assay type: in vivo, mice; conditions: 2×100 mg/kg
Procedure: Liver regeneration in the murine partial hepatectomy model to test for regenerative activity. Model: partial (70%) liver resection in mice and follow rate of regeneration.
FIG. 22 depicts the effect of Compound 3b in a model of liver regeneration. Animals were anesthetized and 70% of the liver was resected, corresponding to the left and median liver lobes. Compound 3b was administered (2×100 mg/kg) 1 h before and 1 h after surgery. Two days later, animals were sacrificed, livers harvested, weighed, and stained for phospho histone H3 (PH3, a specific marker for cell division).

[5] = test system: lethal APAP liver failure model; test: lethal APAP liver failure model (500 mg/kg APAP i.p.), survival; conditions: 2×120 mg/kg, 1 h and 3 h or 3 h and 5 h after APAP (500 mg/kg); 4 days
Procedure: Compound 3b was tested in a lethal APAP liver failure model (see, e.g. Imaeda et al. J Clin Invest (2009) 119:305-14).
Male C57BL/6 mice fasted overnight to increase CyP450 activity. APAP dosed i.p. at 500 mg/kg. Survival monitored over 3 to 5 days.
FIGS. 18A-18B depicts the survival curve of C57BL/6 mice injected (i.p.) with 500 mg/kg of APAP and treated with Compound 3b. Mice were fasted overnight and APAP was administered afterward (n=15). Compound 3b was administered at a dose of 120 mg/kg at 1 h and 3 h (A) or at 3 h and 5 h (B) after APAP administration. Mice survival was monitored for 4 days.
Mice were fasted overnight and APAP was administered afterward (n=15). Compound 3b was administered at a dose of 120 mg/kg (ip) at +3 h or +4 h after APAP administration. Another group of mice received NAC (150 mg/kg, ip) at +1 h after APAP. The remaining two groups are administered in NAC+ Compound 3b combination mode; one group of mice was administered with NAC (150 mg/kg, ip) at +1 h plus Compound 3b (120 mg/kg, ip)+3 h and other with Compound 3b (150 mg/kg, ip) at +1 h plus Compound 3b (120 mg/kg, ip)+4 h. Mice survival was monitored for 4 days.

In the case of `[C-]#[N+]C(C)(C)C(=O)O.[C-]#[N+]C(C)(C)C(=O)O.[C-]#[N+]C(C)(C)C(=O)O.[C-]#[O+].[C-]#[O+].[C-]#[O+].[Mo]` [Compound 3b, tricarbonyl[tris(2-isocyano-2-methyl-propionic acid)]Mo(0)], the COHb in blood ([1]; 300 mg/kg i.v., over 80 min, base line 3-4%) is reported as ≤ 7.5%, the “symptomatic levels of COHb in blood” value ([1]; therapeutic doses, mice) is reported as “did not cause symptomatic levels of COHb” and the “serum ALT” value [2] is reported as 29 U/L. For the same compound, the “increase in survival of ActD/TNF-α treated hepatocytes relative to inducers only” value [3] was “more than 125%”, the “liver weight increase 48 h after resection” value ([4]; 1 h before and 1 h after surgery, control 89%) was 102% and the “PH3 staining (cell division), in words” value ([4]; two days after resection) was “increases PH3 staining”. The survival [5] was 100%.
